Test results taken from PubChem BioAssay (NCI).
Several values for one entry are separate records, joined by “and”; a condition that tells them apart may be missing. Identical values can stand only once.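 Method: 48-hour compound exposure of cells in 96-well plates, five concentrations, linear interpolation of endpoints. Abbreviation: GI50, concentration required for 50% inhibition of growth. At the TGI there is no net growth.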

Legend:
Test in all cases: NCI anticancer screen, dose series, 48 h
SK-MEL-5 melanoma = tested on: SK-MEL-5 melanoma
786-0 renal = tested on: 786-0 renal
UACC-62 melanoma = tested on: UACC-62 melanoma
SF-295 CNS = tested on: SF-295 CNS
NCI-H226 lung = tested on: NCI-H226 lung
HOP-62 NSCLC = tested on: HOP-62 NSCLC
TK-10 renal = tested on: TK-10 renal
RXF 393 renal = tested on: RXF 393 renal
ACHN renal = tested on: ACHN renal
MOLT-4 leukemia = tested on: MOLT-4 leukemia

Row | Compound | GI50 (SK-MEL-5 melanoma) | TGI (SK-MEL-5 melanoma) | GI50 (786-0 renal) | TGI (786-0 renal) | GI50 (UACC-62 melanoma) | TGI (UACC-62 melanoma) | GI50 (SF-295 CNS) | TGI (SF-295 CNS) | GI50 (NCI-H226 lung) | TGI (NCI-H226 lung) | GI50 (HOP-62 NSCLC) | TGI (HOP-62 NSCLC) | GI50 (TK-10 renal) | TGI (TK-10 renal) | GI50 (RXF 393 renal) | TGI (RXF 393 renal) | GI50 (ACHN renal) | TGI (ACHN renal) | GI50 (MOLT-4 leukemia) | TGI (MOLT-4 leukemia)
1 | C=CC(=O)N1CCCC(n2nc(-c3ccc(Oc4ccccc4)cc3)c3c(N)ncnc32)C1 (stereo unspecified) | 6.55 µM | 19.3 µM | 1.86 µM | 16.6 µM | 2360 nM | 14.6 µM | 7.71 µM | 23.8 µM | 3.97 µM | 19.3 µM | 12.9 µM | 26.1 µM | 61.5 nM | 3.94 µM | 2680 nM | 11.4 µM | 0.248 µM | 15.8 µM | 4.28 µM | 25.8 µM
2 | COc1cc(C2c3cc4c(cc3[C@@H](Nc3ccc(C(=O)O)cc3)C3COC(=O)[C@H]23)OCO4)cc(OC)c1O (stereo partly specified) | – | 38.3 µM and > 17.5 µM | 12.3 µM and 3.07 µM | 35 µM and > 17.5 µM | – | 28.2 µM and > 17.5 µM | – | > 100 µM | – | 15.8 µM and 13.9 µM | – | 33.9 µM and > 17.5 µM | – | > 100 µM | – | 37 µM and > 17.5 µM | – | > 100 µM | – | 5.47 µM and 2.66 µM
3 | Clc1nc(Oc2ccccc2)nc(-c2cn(-c3ccccc3)c3ccccc23)n1 | 14.3 µM | 30.5 µM | 18.6 µM | 35.6 µM | 13200 nM | 26.6 µM | > 44.7 µM | > 61 µM | 33.5 µM | > 62.2 µM | 15.2 µM | 29.4 µM | 28700 nM | 67.1 µM | 3800 nM | 10.7 µM | 8.16 µM | 21.1 µM | 0.79 µM | 21.9 µM
4 | C[CH2][Sn]1([CH2]C)[O]C(=O)[O][Sn]([CH2]C)([CH2]C)[O]1 | 21.1 µM | 40.8 µM | 17.6 µM | 32 µM | 16800 nM | 32.5 µM | 19.4 µM | 34.7 µM | > 43.8 µM | > 58.4 µM | 41.8 µM | > 68.2 µM | 18700 nM | 32.8 µM | 15500 nM | 30.3 µM | > 50.4 µM | > 64.6 µM | 41.7 µM | > 100 µM
5 | CCCCCCNC(=O)C1=C(C)NC(C)=C(C(=O)NCCCCCC)C1 | – | > 100 µM | – | > 100 µM | – | > 100 µM | – | > 100 µM | – | > 100 µM | – | > 100 µM | – | > 100 µM | – | > 100 µM | – | > 100 µM | – | > 100 µM
6 | COc1cc(OC)c(/C=C/c2ccc3ccccc3[n+]2C)c(OC)c1 | 0.567 µM | 1.95 µM | 3.16 µM | 16.8 µM | 1130 nM | 3.08 µM | 0.549 µM | 4.25 µM | 1.42 µM | 18.5 µM | 1.13 µM | 12.1 µM | 1910 nM | 6.93 µM | 2060 nM | 11.7 µM | 4.32 µM | > 75.5 µM | 1.35 µM | 4.77 µM
7 | Oc1ccc(N=Nc2ccc(Cl)cc2)cc1 | – | 24.1 µM | – | 31.5 µM | – | 36.4 µM | – | 34.6 µM | – | 35.6 µM | – | 35.6 µM | – | 33.8 µM | – | 30.3 µM | – | 27.7 µM | – | 51.7 µM
8 | CC(C)c1ccc(Cc2cnc(NC(=O)c3cc(Br)cs3)s2)cc1 | 1.9 µM | > 100 µM | 4.55 µM | > 100 µM | 1380 nM | > 100 µM | 2 µM | 19.6 µM | 5.68 µM | > 100 µM | 3.05 µM | 29.2 µM | 2720 nM | 19.4 µM | 1750 nM | 5.97 µM | 4.64 µM | > 100 µM | 7.59 µM | > 100 µM
9 | O=C(O)C1CCc2ccc3ccccc3c2C1c1cccc2ccccc12 (stereo unspecified) | – | 30.1 µM | – | 38.2 µM | – | 29.4 µM | – | 69.4 µM | – | 60 µM | – | 35.9 µM | – | > 100 µM | – | 39.6 µM | – | > 100 µM | – | 48.7 µM
10 | COC1=CC23C=CC1[C@@H](c1ccccc1)C2=C(C)C(=O)N3C(=O)NC1CCCCC1 (stereo partly specified) | – | 29.2 µM | – | 32.4 µM | – | 47.6 µM | – | 53.7 µM | – | 46.6 µM | – | 50.2 µM | – | 84.3 µM | – | 14.8 µM | – | > 100 µM | – | 45.9 µM
11 | CN1CCN(CCSC2Cc3cc(Cl)ccc3Sc3ccccc32)CC1 (stereo unspecified) | – | 7.88 µM | – | 9.11 µM | – | 3.63 µM | – | 15.6 µM | – | 31.4 µM | – | 26.7 µM | – | 9.67 µM | – | 15.3 µM | – | 19.8 µM | – | 7.74 µM
12 | COc1ccc2c(c1)C(=O)CC(N)C2 (stereo unspecified) | – | > 100 µM | – | > 100 µM | – | > 100 µM | – | > 100 µM | – | > 100 µM | – | > 100 µM | – | > 100 µM | – | > 100 µM | – | > 100 µM | – | > 100 µM
